Experimental data reported in paper PMC2962730 (Journal of neurochemistry, 2010).
Substitutions are numbered along the chain they refer to.

Assays:
hVAChT F392A = biological target: T1, hVAChT F392A (Homo sapiens, UniProt Q16572, F392A); experiment: ACh equilibrium binding by competition against [3H]vesamicol
T1 sequence (Q16572 1-532 F392A): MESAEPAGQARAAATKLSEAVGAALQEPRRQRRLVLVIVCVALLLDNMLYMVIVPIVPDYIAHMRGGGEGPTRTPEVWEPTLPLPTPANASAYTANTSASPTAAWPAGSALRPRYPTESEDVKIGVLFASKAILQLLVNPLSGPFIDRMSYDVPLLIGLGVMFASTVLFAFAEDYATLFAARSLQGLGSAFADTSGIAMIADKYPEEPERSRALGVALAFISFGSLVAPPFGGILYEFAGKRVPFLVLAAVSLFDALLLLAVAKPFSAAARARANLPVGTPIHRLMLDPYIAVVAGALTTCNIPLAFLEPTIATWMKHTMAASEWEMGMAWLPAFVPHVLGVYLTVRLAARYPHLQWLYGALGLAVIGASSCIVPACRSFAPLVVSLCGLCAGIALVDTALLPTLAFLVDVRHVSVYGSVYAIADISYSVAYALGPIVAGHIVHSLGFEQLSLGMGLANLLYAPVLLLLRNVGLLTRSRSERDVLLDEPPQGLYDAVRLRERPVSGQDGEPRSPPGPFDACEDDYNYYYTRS

hVAChT A334F = biological target: T2, hVAChT A334F (Homo sapiens, UniProt Q16572, A334F); experiment: [3H]ACh transport; format: biochemical
T2 sequence (Q16572 1-532 A334F): T1 sequence (Q16572 1-532 F392A) with A334F, A392F

hVAChT W325H = biological target: T3, hVAChT W325H (Homo sapiens, UniProt Q16572, W325H); experiment: ACh equilibrium binding by competition against [3H]vesamicol
T3 sequence (Q16572 1-532 W325H): T1 sequence (Q16572 1-532 F392A) with W325H, A392F

[1] = test system: rat VAChT (rVAChT) W331 mutants; conditions: mutations of W331 in rVAChT; ref Ojeda et al. 2004; cited from earlier work
hVAChT W315A = biological target: T4, hVAChT W315A (Homo sapiens, UniProt Q16572, W315A); experiment: [3H]vesamicol saturation binding; conditions: pH 7.4
T4 sequence (Q16572 1-532 W315A): T1 sequence (Q16572 1-532 F392A) with W315A, A392F

hVAChT A330V = biological target: T5, hVAChT A330V (Homo sapiens, UniProt Q16572, A330V); experiment: [3H]vesamicol saturation binding; conditions: pH 7.4
T5 sequence (Q16572 1-532 A330V): T1 sequence (Q16572 1-532 F392A) with A330V, A392F

| Compound | Kd (hVAChT F392A) | FHA, fraction of the ACh sites that have high affinity (hVAChT F392A; F392A hVAChT, pH 7.4) | ACh transport rate relative to wild-type (as fast as) (hVAChT A334F; A334F hVAChT vs wild-type) | Vmax/Bmax, ACh transport normalized to Bmax (hVAChT A334F; A334F hVAChT, pH 7.4) | Km (hVAChT A334F; read-out: KM, Michaelis-Menten constant for ACh transport, A334F hVAChT, pH 7.4) | Kd (hVAChT W325H) | FHA, fraction of the ACh sites that have high affinity (hVAChT W325H; W325H hVAChT, pH 7.4) | decrease in ACh affinity (equilibrium) [1] | Bmax, maximal specific [3H]vesamicol binding (VAChT expression level) (hVAChT W315A) | Bmax, maximal specific [3H]vesamicol binding (VAChT expression level) (hVAChT A330V) |
| --- | --- | --- | --- | --- | --- | --- | --- | --- | --- | --- |
| CC(=O)OCC[N+](C)(C)C [ACh, acetylcholine] | 7.9 ± 1.3 mM | 0.91 ± 0.06 | about one-half | 3.6 ± 0.8 min⁻¹ | 3 ± 1.3 mM | 5.5 ± 0.9 mM | 0.82± 0.06 | ≤ 9 fold |  |  |
| O[C@@H]1CCCC[C@H]1N1CCC(c2ccccc2)CC1 (racemic) [vesamicol, ( )-trans-2-(4-phenylpiperidino)cyclohexanol] |  |  |  |  |  |  |  |  | 26 ± 1 pmol/mg | 21 ± 0 pmol/mg |
